From ChEMBL document CHEMBL5126521, “Analgesic Opioid Ligand Discovery Based on Nonmorphinan Scaffolds Derived from Natural Sources” (J Med Chem, 2022) come the findings set out here.

Each structure is given as a SMILES string. Bridge positions count the residues as written; N and C are the ends. Square brackets hold non-standard residues; d marks the D form. Peptide text beside a SMILES is read from it. Bounds are passed on as bounds.

The test system of series [1] is Mus musculus. In words: Antinociceptive activity in sc dosed mouse. The class given is functional.
The target in series [2] is T1, Mu-type opioid receptor (Rattus norvegicus, UniProt P33535). Briefly: Agonist activity at recombinant rat MOP stably expressed in CHO-K1 cell membrane assessed as [35S]GTPgammaS binding. In kind it is functional, cell membranes.
T1 sequence (P33535 whole entry): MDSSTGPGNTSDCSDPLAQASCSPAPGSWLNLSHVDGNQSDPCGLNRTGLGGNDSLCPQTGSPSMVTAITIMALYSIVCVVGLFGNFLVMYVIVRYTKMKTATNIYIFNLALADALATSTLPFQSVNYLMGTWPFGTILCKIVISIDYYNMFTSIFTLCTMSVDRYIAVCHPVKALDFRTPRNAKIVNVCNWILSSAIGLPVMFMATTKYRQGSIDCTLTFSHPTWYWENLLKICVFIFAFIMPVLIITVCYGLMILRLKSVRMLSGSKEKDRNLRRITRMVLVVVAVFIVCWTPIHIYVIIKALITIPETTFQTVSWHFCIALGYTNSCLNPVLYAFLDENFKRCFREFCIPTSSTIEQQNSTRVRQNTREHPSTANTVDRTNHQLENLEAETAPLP
Series [3] in a line: Toxicity in po dosed mouse assessed as antinociceptive activity tolerance by tail flick assay. The class given is organism-based. The conditions noted are these: in vivo. (In general: Thermal pain tests record how soon the animal reacts.)
Series [4] is described as follows: Toxicity in sc dosed mouse assessed as antinociceptive activity tolerance. In kind it is organism-based. The conditions noted are these: in vivo.
Series [5] deals with Kappa-type opioid receptor (Cavia porcellus, UniProt P41144). In words: Displacement of [3H]U69593 from guinea pig brain membrane KOP incubated for 1 hr by scintillation counter analysis. In kind it is cell membranes. (In general: Displacement assays read how much labelled ligand stays bound in the presence of the test substance.)
Kappa-type opioid receptor (Cavia porcellus, UniProt P41144), sequence (P41144 whole entry): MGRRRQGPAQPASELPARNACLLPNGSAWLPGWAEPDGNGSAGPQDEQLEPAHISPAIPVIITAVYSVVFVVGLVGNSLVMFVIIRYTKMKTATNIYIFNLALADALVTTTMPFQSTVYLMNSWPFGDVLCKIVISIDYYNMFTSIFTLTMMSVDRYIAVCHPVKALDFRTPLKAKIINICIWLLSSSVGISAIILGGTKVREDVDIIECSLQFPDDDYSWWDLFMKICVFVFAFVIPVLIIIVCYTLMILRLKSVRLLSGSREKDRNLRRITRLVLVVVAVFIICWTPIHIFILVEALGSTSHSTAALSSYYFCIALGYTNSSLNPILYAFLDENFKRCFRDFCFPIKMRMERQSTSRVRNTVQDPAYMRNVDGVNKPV
For series [6], the system named is Mus musculus. Briefly: Antinociceptive activity in po dosed mouse by tail flick assay. The class given is functional.
Series [7] in a line: Displacement of [3H]DPDPE from guinea pig brain membrane DOP incubated for 2.5 hr by scintillation counter analysis. In kind it is cell membranes, Cavia porcellus.
For series [8], the target named is Delta-type opioid receptor (Rattus norvegicus, UniProt P33533). In words: Agonist activity at recombinant rat DOP stably expressed in CHO-K1 cell membrane assessed as [35S]GTPgammaS binding. In kind it is functional, cell membranes. For orientation: Binding of GTPγS marks nucleotide exchange on a G protein.
Delta-type opioid receptor (Rattus norvegicus, UniProt P33533), sequence (P33533 whole entry): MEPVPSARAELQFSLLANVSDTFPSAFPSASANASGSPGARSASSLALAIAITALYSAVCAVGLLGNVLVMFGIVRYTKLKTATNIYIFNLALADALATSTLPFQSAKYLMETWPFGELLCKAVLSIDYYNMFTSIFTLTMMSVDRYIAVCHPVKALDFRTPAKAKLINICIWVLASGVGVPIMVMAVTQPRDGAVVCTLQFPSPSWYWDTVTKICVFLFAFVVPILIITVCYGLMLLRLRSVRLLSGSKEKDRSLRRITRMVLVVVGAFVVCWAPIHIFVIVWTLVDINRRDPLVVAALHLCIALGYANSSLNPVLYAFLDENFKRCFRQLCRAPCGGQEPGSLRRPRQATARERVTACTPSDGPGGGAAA
Series [9] has as its target T2, Mu-type opioid receptor (Cavia porcellus, UniProt P97266). In words: Displacement of [3H]DAMGO from guinea pig brain membrane MOP incubated for 1 hr by scintillation counter analysis. In kind it is cell membranes.
For series [10], the system named is Mus musculus. In words: Antinociceptive activity in Std-ddY mouse at 100 mmHg pressure administered sc by tail pressure test. In kind it is functional.
The subject of series [11] is Mus musculus. Briefly: Antinociceptive activity in Std-ddY mouse at 100 mmHg pressure administered icv by tail pressure test. In kind it is functional.
Series [12] has as its system Mus musculus. Briefly: Antinociceptive activity in ddY mouse assessed as tail-flick latency administered icv by tail flick test. In kind it is functional.
The test system of series [13] is Mus musculus. In words: Antinociceptive activity in Std-ddY mouse at 100 mmHg pressure administered po by tail pressure test. In kind it is functional.
The subject of series [14] is Mus musculus. In words: Antinociceptive activity in ddY mouse assessed as tail-flick latency administered it by tail flick test. In kind it is functional.
The subject of series [15] is Mus musculus. Briefly: Antinociceptive activity in Std-ddY mouse at 100 mmHg pressure administered IT by tail pressure test. The class given is functional.
Series [16] can be described thus: Stability in mouse serum assessed as half life. The class given is ADME, cell-free.
Series [17] deals with Mus musculus. In words: Antinociceptive activity in Kunming mouse assessed tail flick response in warm water administered icv. In kind it is functional.
Series [18] can be described thus: Stability in mouse brain homogenate assessed as half life. The class given is ADME, tissue-based.
Series [19] has as its target T3, Mu-type opioid receptor (Homo sapiens, UniProt P35372). In words: Displacement of [3H]DAMGO from MOP (unknown origin) stably expressed in HEK293 cells by liquid scintillation counter analysis. In kind it is cell-based.
In series [20] the target is T3, Mu-type opioid receptor. Briefly: Agonist activity at MOP (unknown origin) stably expressed in HEK293 cells assessed as forskolin stimulated cAMP accumulation incubated for 30 mins by radioactivity based scintillation counter analysis relative to control. The class given is functional, cell-based. The conditions noted are these: filed as agonist.
In series [21] the test system is Mus musculus. In words: Antinociceptive activity in Kunming mouse assessed as tail flick response in warm water administered iv. In kind it is functional.
Series [22] concerns the target Delta-type opioid receptor (Homo sapiens, UniProt P41143). Briefly: Displacement of [3H]DPDPE from DOP (unknown origin) stably expressed in HEK293 cells by liquid scintillation counter analysis. The class given is cell-based.
In series [23] the target is T3, Mu-type opioid receptor. Briefly: Agonist activity at MOP (unknown origin) stably expressed in HEK293 cells assessed as forskolin stimulated cAMP accumulation incubated for 30 mins by radioactivity based scintillation counter analysis. The class given is functional, cell-based.
Series [24] relates to Mus musculus. Briefly: Antinociceptive activity in icv dosed C57BL/6J mouse assessed as tail withdrawal latency from warm water. In kind it is functional.
Series [25] deals with Kappa-type opioid receptor (Homo sapiens, UniProt P41145). In words: Binding affinity to human KOP stably expressed in CHO cell membrane assessed as [35S]GTPgammaS binding. In kind it is cell membranes. The conditions noted are these: filed as antagonist.
Kappa-type opioid receptor (Homo sapiens, UniProt P41145), sequence (P41145 whole entry): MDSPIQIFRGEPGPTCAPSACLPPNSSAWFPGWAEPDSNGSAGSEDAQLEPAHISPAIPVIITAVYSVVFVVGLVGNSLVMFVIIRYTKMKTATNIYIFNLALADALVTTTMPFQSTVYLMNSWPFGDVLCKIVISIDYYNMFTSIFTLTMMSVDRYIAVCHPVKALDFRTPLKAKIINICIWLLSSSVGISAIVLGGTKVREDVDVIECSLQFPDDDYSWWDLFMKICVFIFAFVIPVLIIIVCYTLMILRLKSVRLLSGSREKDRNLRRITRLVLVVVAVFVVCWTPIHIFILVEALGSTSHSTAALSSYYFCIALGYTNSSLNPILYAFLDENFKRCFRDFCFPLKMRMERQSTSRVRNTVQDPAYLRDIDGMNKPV
The target of series [26] is T3, Mu-type opioid receptor. Briefly: Antagonist activity at human MOP stably expressed in CHO cell membrane assessed as [35S]GTPgammaS binding. The class given is functional, cell membranes.
Series [27] deals with T1, Mu-type opioid receptor. Briefly: Displacement of [3H]DAMGO from rat MOP stably expressed in CHO cell membrane. The class given is cell membranes.
Series [28] deals with T4, Kappa-type opioid receptor (Rattus norvegicus, UniProt P34975). Briefly: Displacement of [3H]diprenorphine from rat KOP stably expressed in CHO cell membrane. The class given is cell membranes.
T4 sequence (P34975 whole entry): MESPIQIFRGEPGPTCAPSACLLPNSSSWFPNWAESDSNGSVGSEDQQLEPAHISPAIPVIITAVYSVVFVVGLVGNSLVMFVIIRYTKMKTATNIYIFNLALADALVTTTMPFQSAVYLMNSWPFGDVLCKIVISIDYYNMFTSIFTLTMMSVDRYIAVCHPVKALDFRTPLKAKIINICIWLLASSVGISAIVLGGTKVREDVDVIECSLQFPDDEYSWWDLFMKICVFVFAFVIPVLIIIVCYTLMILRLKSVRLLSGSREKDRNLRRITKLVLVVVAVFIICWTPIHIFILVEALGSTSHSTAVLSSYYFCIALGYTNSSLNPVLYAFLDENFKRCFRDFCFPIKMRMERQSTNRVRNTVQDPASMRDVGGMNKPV
The test system of series [29] is Mus musculus. In words: Antinociceptive activity in mouse administered icv. In kind it is functional.
The species entered for series [30] is Mus musculus. In words: Antinociceptive activity in mouse by tail pressure test. In kind it is functional.
Series [31] concerns Mus musculus. In words: Antinociceptive activity in mouse administered IT by tail pressure test. In kind it is functional.
Series [32] has as its target T2, Mu-type opioid receptor. In words: Antagonist activity at guinea pig ileum MOP. In kind it is functional, tissue-based.
For series [33], the target named is T5, Delta-type opioid receptor (Mus musculus, UniProt P32300). In words: Displacement of [3H]DPDPE from mouse brain cerebellum DOP incubated for 2 hrs by liquid scintillation counter analysis. The class given is tissue-based.
T5 sequence (P32300 whole entry): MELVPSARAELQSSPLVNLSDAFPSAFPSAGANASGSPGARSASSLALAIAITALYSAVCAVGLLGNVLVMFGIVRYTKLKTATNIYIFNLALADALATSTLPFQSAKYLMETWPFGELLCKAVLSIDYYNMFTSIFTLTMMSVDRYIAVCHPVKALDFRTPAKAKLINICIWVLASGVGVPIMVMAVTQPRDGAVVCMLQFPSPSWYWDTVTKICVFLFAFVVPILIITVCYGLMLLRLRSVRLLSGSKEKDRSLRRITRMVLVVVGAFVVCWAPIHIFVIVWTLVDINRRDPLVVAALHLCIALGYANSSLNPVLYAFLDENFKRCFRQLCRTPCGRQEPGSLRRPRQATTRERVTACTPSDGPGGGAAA
For series [34], the system named is Mus musculus. Briefly: Antinociceptive activity in mouse administered sc. The class given is functional.
Series [35] deals with Mus musculus. Briefly: Antinociceptive activity in mouse administered po. In kind it is functional.
Series [36] deals with Kappa-type opioid receptor (Mus musculus, UniProt P33534). In words: Displacement of [3H]U-69593 from mouse spinal cord KOP measured after 60 mins by liquid scintillation counter analysis. The class given is tissue-based.
Kappa-type opioid receptor (Mus musculus, UniProt P33534), sequence (P33534 whole entry): as the sequence (P34975 whole entry) above, with E11D, A17S, P51S, V308A counted along it
In series [37] the target is T5, Delta-type opioid receptor. Briefly: Displacement of [3H]deltorphin-II from mouse spinal cord DOP measured after 60 mins by liquid scintillation counter analysis. The class given is tissue-based.
The target in series [38] is T6, Mu-type opioid receptor (Mus musculus, UniProt P42866). Briefly: Displacement of [3H]DAMGO from mouse brain cerebellum MOP incubated for 2 hrs by liquid scintillation counter analysis. In kind it is tissue-based.
T6 sequence (P42866 whole entry): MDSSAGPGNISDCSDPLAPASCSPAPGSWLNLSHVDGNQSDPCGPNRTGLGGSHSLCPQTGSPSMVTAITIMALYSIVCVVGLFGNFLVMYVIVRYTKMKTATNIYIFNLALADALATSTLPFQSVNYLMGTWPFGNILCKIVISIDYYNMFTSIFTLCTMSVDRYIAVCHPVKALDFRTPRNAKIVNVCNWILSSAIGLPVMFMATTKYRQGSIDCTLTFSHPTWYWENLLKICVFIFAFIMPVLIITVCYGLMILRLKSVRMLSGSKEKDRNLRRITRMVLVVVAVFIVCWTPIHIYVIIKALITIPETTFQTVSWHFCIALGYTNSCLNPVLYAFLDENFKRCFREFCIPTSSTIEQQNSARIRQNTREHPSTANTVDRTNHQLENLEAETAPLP
Series [39] has as its system Mus musculus. In words: Antinociceptive activity in mouse administered IT. In kind it is functional.
For series [40], the target named is T6, Mu-type opioid receptor. In words: Displacement of [3H]DAMGO from mouse spinal cord MOP measured after 60 mins by liquid scintillation counter analysis. The class given is tissue-based.
In series [41] the target is T4, Kappa-type opioid receptor. Briefly: Inhibition of Wistar rat brain membrane KOP. The class given is cell membranes.
Series [42] deals with Mus musculus. In words: Antinociceptive activity in Swiss albino mouse assessed tail flick response in warm water administered icv. The class given is functional.

Broadly, the EC50 is the concentration giving half of the maximal effect. By Ki is commonly meant a dissociation constant, usually derived from enzyme kinetics or from competition with a known ligand. As a reminder, the half-life is the time needed for the level to fall by half in the phase considered. In general, Emax refers to the greatest response seen or fitted, relative to the assay's reference. The Kb is the affinity of an antagonist, worked out from how it opposes an agonist. As a reminder, the IC50 is the point on the concentration scale where inhibition reaches its midpoint.

T3 sequence (P35372 whole entry): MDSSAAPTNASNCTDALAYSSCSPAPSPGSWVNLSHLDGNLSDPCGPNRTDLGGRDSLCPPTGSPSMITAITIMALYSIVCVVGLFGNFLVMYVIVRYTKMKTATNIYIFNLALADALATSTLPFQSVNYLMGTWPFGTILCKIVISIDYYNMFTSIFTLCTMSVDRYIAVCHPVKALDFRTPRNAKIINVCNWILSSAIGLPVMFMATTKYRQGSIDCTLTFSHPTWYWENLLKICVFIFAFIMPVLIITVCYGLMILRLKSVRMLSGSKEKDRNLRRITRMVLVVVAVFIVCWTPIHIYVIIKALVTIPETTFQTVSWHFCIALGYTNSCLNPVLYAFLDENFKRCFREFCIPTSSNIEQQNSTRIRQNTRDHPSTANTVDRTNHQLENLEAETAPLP
T2 sequence (P97266 whole entry): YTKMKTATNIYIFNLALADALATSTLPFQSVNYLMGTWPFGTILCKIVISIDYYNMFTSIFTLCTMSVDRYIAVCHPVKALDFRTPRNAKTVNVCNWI
Delta-type opioid receptor (Homo sapiens, UniProt P41143), sequence (P41143 whole entry): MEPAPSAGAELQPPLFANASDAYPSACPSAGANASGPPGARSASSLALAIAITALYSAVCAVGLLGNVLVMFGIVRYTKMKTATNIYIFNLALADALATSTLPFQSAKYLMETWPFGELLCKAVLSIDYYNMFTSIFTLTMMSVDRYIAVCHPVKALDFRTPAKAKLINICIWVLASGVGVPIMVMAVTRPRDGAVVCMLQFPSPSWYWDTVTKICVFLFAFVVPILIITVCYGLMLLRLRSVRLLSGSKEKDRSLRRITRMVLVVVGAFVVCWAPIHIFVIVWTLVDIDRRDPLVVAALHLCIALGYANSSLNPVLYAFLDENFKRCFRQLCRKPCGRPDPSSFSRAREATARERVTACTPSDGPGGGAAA

In the case of `CC[C@@H]1CN2CC[C@]3(O)c4c(ccc(F)c4OC)N[C@@H]3[C@@H]2C[C@@H]1/C(=C\OC)C(=O)OC`, the ED50 in the series on Mus musculus [1] was determined as 0.06 mg/kg; in series [3] it was 0.45 mg/kg; in [4] it was 0.09 mg/kg; with Mus musculus [6] it was 0.26 mg/kg. Besides, the concentration giving a half-maximal response (EC50) on Mu-type opioid receptor [2] stood at 18 nM; in series [8] it was 61 nM. Besides, the results for the Ki (in series [5]; in series [7]; on Mu-type opioid receptor [9]) were 29 nM, 7 nM and 2.1 nM, respectively.

Regarding `N=C(N)NCCC[C@@H](NC(=O)[C@@H](N)Cc1ccc(O)cc1)C(=O)N[C@@H](Cc1ccccc1)C(=O)NCCC(=O)O`, the ED50 came out at 0.8 µmol/kg with Mus musculus [10]; 3.1 pmol with Mus musculus [11]; 1.3 pmol with Mus musculus [12]; 70.1 µmol/kg with Mus musculus [13]; 0.3 pmol in the series with Mus musculus [14]; 0.5 pmol with Mus musculus [15].

`C=C(C(N)=O)[C@@H](NC(=O)[C@H](Cc1c[nH]c2ccccc12)NC(=O)[C@@H](C)N(C)C(=O)[C@@H](N)Cc1c(C)cc(O)cc1C)c1ccco1`: the half-life in series [16] and in [18] was at least 5 h in each case. In addition, the ED50 worked out at 0.000695 µmol/kg in the series with Mus musculus [17] and 0.382 mg/kg in the series on Mus musculus [21]. Moreover, the Ki at Mu-type opioid receptor [19] was 0.011 nM; in series [22], 33.3 nM. Moreover, at Mu-type opioid receptor [20], the maximal response (Emax) came to 98.3%. In addition, the half-maximal effective concentration (EC50) on Mu-type opioid receptor [23] stood at 0.0018 nM.

`C[C@@H]1C(=O)N[C@@H](Cc2ccccc2)C(=O)N[C@H](Cc2c[nH]c3ccccc23)C(=O)N[C@@H](Cc2ccccc2)C(=O)N1C`: the ED50 in the series with Mus musculus [24] was 4.19 nmol. In addition, the Kb in series [25] stood at 103 nM. Further, the IC50 at Mu-type opioid receptor [26] is 321 nM. Also, the values for the Ki (on Mu-type opioid receptor [27]; in series [28]) were 257 nM and 76.9 nM, respectively.

As for `CC[C@@H]1CN2CC[C@]3(O)c4c(cccc4OC)N[C@@H]3[C@@H]2C[C@@H]1/C(=C\OC)C(=O)OC`, the ED50 with Mus musculus [1] came out at 0.3 mg/kg; in [3], 2.2 mg/kg; in series [4], 0.35 mg/kg; in the series with Mus musculus [6], 1.3 mg/kg. The EC50 at Mu-type opioid receptor [2] stood at 250 nM; in series [8], 1490 nM. For the same molecule, the Ki in [5] was determined as 55 nM; in series [7], 16 nM; on Mu-type opioid receptor [9], 6.4 nM.

Turning to `N=C(N)NCCC[C@@H](NC(=O)[C@@H](N)Cc1ccc(O)cc1)C(=O)N[C@@H](Cc1ccccc1)C(=O)NCC(=O)O` (H-Y[dR]FG-OH), the ED50 was 10.3 pmol in the series with Mus musculus [29], 5.8 pmol in the series filed under Mus musculus [30] and 1 pmol with Mus musculus [31]. The molecule further had an IC50 on Mu-type opioid receptor [32] of 10.8 nM.

As for `N=C(N)NCCC[C@@H](NC(=O)[C@H](Cc1ccc(O)cc1)NC(=N)N)C(=O)N[C@@H](Cc1ccccc1)C(=O)NCCC(=O)O`, the Ki in [33] was 160 nM; in series [36], over 1000 nM; in series [37], over 1000 nM; on Mu-type opioid receptor [38] it was 0.67 nM; on Mu-type opioid receptor [40], 12.9 nM. For the same molecule, the values for the ED50 in the series on Mus musculus [34], in the series on Mus musculus [35] and in the series with Mus musculus [39] were 0.24 mg/kg, 19 mg/kg and 0.34 pmol, respectively.

Consider `NC(=O)[C@@H]1CC(=O)NCCCC[C@@H](NC(=O)[C@@H](N)Cc2ccc(O)cc2)C(=O)N[C@@H](Cc2ccccc2)C(=O)N[C@@H](Cc2ccccc2)C(=O)N1` (H-Y[dK]FFD-NH2; lactam 2-5), for which the half-inhibitory concentration (IC50) in series [41] worked out at 2.36 nM. For the same molecule, the ED50 in the series on Mus musculus [42] worked out at 0.06 nmol.
